Columns and labels:
Assay type in all cases: functional
RXF 393 = assay: Cytotoxicity against human RXF393 cells assessed as cellular growth at 100 uM after 48 hrs by SRB assay relative to control
TK-10 = assay: Cytotoxicity against human TK10 cells assessed as cellular growth at 1 uM after 48 hrs by SRB assay relative to control
NCI-H226 = assay: Cytotoxicity against human NCI-H226 cells assessed as cellular growth at 1 uM after 48 hrs by SRB assay relative to control
DU-145 = assay: Cytotoxicity against human DU145 cells assessed as cellular growth at 1 uM after 48 hrs by SRB assay relative to control
U-251 = assay: Cytotoxicity against human U251 cells assessed as cellular growth at 1 uM after 48 hrs by SRB assay relative to control
K562 [1] = assay: Cytotoxicity against human K562 cells assessed as cellular growth at 0.01 uM after 48 hrs by SRB assay relative to control
UACC-257 = assay: Cytotoxicity against human UACC257 cells after 48 hrs by SRB assay; settings: UACC-257, 48 h
MCF7 [2] = assay: Cytotoxicity against human MCF7 cells assessed as cellular growth at 0.1 uM after 48 hrs by SRB assay relative to control
SF-539 = assay: Cytotoxicity against human SF539 cells assessed as cellular growth at 0.01 uM after 48 hrs by SRB assay relative to control
NCI-H522 = assay: Cytotoxicity against human NCI-H522 cells assessed as cellular growth at 0.01 uM after 48 hrs by SRB assay relative to control
HOP-92 = assay: Cytotoxicity against human HOP92 cells assessed as cellular growth at 0.1 uM after 48 hrs by SRB assay relative to control
M14 = assay: Cytotoxicity against human M14 cells assessed as cellular growth at 0.01 uM after 48 hrs by SRB assay relative to control
K562 [3] = assay: Cytotoxicity against human K562 cells assessed as cellular growth at 1 uM after 48 hrs by SRB assay relative to control
BT-549 = assay: Cytotoxicity against human BT549 cells assessed as cellular growth at 1 uM after 48 hrs by SRB assay relative to control
CCRF-CEM = assay: Cytotoxicity against human CCRF-CEM cells assessed as cellular growth at 1 uM after 48 hrs by SRB assay relative to control
MCF7 [4] = assay: Cytotoxicity against human MCF7 cells assessed as cellular growth at 0.01 uM after 48 hrs by SRB assay relative to control
UO-31 = assay: Cytotoxicity against human UO31 cells assessed as cellular growth at 0.1 uM after 48 hrs by SRB assay relative to control
SK-OV-3 = assay: Cytotoxicity against human SKOV3 cells assessed as cellular growth at 1 uM after 48 hrs by SRB assay relative to control
MDA-MB-435 = assay: Cytotoxicity against human MDA-MB-435 cells assessed as cellular growth at 1 uM after 48 hrs by SRB assay relative to control
[5] = Cytotoxicity against human EKVX cells assessed as cellular growth at 0.01 uM after 48 hrs by SRB assay relative to control
786-0 = assay: Cytotoxicity against human 786-0 cells assessed as cellular growth at 1 uM after 48 hrs by SRB assay relative to control
LOX IMVI = assay: Cytotoxicity against human LOXIMVI cells assessed as cellular growth at 0.1 uM after 48 hrs by SRB assay relative to control
A549 = assay: Cytotoxicity against human A549 cells after 48 hrs by SRB assay; settings: A549, 48 h
KM12 = assay: Cytotoxicity against human KM12 cells after 48 hrs by SRB assay; settings: KM12, 48 h
Hs-578T = assay: Cytotoxicity against human Hs578T cells assessed as cellular growth at 0.1 uM after 48 hrs by SRB assay relative to control
A498 = assay: Cytotoxicity against human A498 cells after 48 hrs by SRB assay; settings: A498, 48 h
SNB-75 = assay: Cytotoxicity against human SNB75 cells assessed as cellular growth at 1 uM after 48 hrs by SRB assay relative to control
OVCAR-8 = assay: Cytotoxicity against human OVCAR8 cells after 48 hrs by SRB assay; settings: OVCAR-8, 48 h
NCI-H23 [6] = assay: Cytotoxicity against human NCI-H23 cells assessed as cellular growth at 100 uM after 48 hrs by SRB assay relative to control
Malme-3M = assay: Cytotoxicity against human MALME-3M cells assessed as cellular growth at 100 uM after 48 hrs by SRB assay relative to control
SK-MEL-28 = assay: Cytotoxicity against human SK-MEL-28 cells assessed as cellular growth at 100 uM after 48 hrs by SRB assay relative to control
T47D = assay: Cytotoxicity against human T47D cells assessed as cellular growth at 100 uM after 48 hrs by SRB assay relative to control
SF-268 = assay: Cytotoxicity against human SF268 cells assessed as cellular growth at 1 uM after 48 hrs by SRB assay relative to control
MDA-MB-468 = assay: Cytotoxicity against human MDA-MB-468 cells assessed as cellular growth at 0.1 uM after 48 hrs by SRB assay relative to control
HCT-116 = assay: Cytotoxicity against human HCT116 cells assessed as cellular growth at 10 uM after 48 hrs by SRB assay relative to control
NCI-H23 [7] = assay: Cytotoxicity against human NCI-H23 cells assessed as cellular growth at 0.01 uM after 48 hrs by SRB assay relative to control
HL-60(TB) = assay: Cytotoxicity against human HL-60(TB) cells assessed as cellular growth at 100 uM after 48 hrs by SRB assay relative to control
SW-620 = assay: Cytotoxicity against human SW620 cells assessed as cellular growth at 100 uM after 48 hrs by SRB assay relative to control
[8] = read-out: LC50 (the source's name)
[9] = read-out: pLC50 (the source's name) (converted)

With `O=C(CCCn1c2c(sc3ccccc32)c(=O)n2nnc(-c3ccccc3)c12)NCCc1c[nH]cn1` the Activity (RXF 393) was -61%, the Activity (TK-10) was 121% and the Activity (NCI-H226) was 101%. It also gave an Activity (DU-145) of 55%, an Activity (U-251) of 36% and an Activity (K562 [1]) of 65%. For the same compound, the GI50 (UACC-257; read-out: GI50) was 2.14 µM, the CC50 (UACC-257; [8]) was 7.83 µM and the TGI (UACC-257; read-out: TGI) was 4.09 µM. The GI50 (UACC-257; read-out: pGI50 (converted)) was 2.14 µM, the CC50 (UACC-257; [9]) was 7.76 µM and the TGI (UACC-257; read-out: pTGI (converted)) was 4.07 µM. For the same compound, the Activity (MCF7 [2]) was 75%, the Activity (SF-539) was 73% and the Activity (NCI-H522) was 65%. For the same compound, the Activity (HOP-92) was 95%, the Activity (M14) was 108% and the Activity (K562 [3]) was 1%. For the same compound, the Activity (BT-549) was 100%, the Activity (CCRF-CEM) was -28% and the Activity (MCF7 [4]) was 98%. The Activity (UO-31) was 106%, the Activity (SK-OV-3) was 84% and the Activity (MDA-MB-435) was 34%. It also gave an Activity [5] of 104%, an Activity (786-0) of 53% and an Activity (LOX IMVI) of 89%. It also gave a GI50 (A549; read-out: GI50) of 1.29 µM, a TGI (A549; read-out: TGI) of 3.21 µM and a GI50 (A549; read-out: pGI50 (converted)) of 1.29 µM. For the same compound, the TGI (A549; read-out: pTGI (converted)) was 3.24 µM, the GI50 (KM12; read-out: GI50) was 0.336 µM and the CC50 (KM12; [8]) was 4.88 µM. For the same compound, the TGI (KM12; read-out: TGI) was 2.01 µM, the GI50 (KM12; read-out: pGI50 (converted)) was 0.339 µM and the CC50 (KM12; [9]) was 4.9 µM. For the same compound, the TGI (KM12; read-out: pTGI (converted)) was 2 µM, the Activity (Hs-578T) was 91% and the GI50 (A498; read-out: GI50) was 1.09 µM. It also gave a CC50 (A498; [8]) of 5.61 µM, a TGI (A498; read-out: TGI) of 2.47 µM and a GI50 (A498; read-out: pGI50 (converted)) of 1.1 µM. For the same compound, the CC50 (A498; [9]) was 5.62 µM, the TGI (A498; read-out: pTGI (converted)) was 2.45 µM and the Activity (SNB-75) was 107%. For the same compound, the GI50 (OVCAR-8; read-out: GI50) was under 0.01 µM, the CC50 (OVCAR-8; [8]) was over 100 µM and the TGI (OVCAR-8; read-out: TGI) was 2.99 µM. The GI50 (OVCAR-8; read-out: pGI50 (converted)) was 0.01 µM, the CC50 (OVCAR-8; read-out: pLC50 (converted)) was over 100 µM and the TGI (OVCAR-8; read-out: pTGI (converted)) was 3.02 µM. For the same compound, the Activity (NCI-H23 [6]) was -38%, the Activity (Malme-3M) was -72% and the Activity (SK-MEL-28) was -100%. The Activity (T47D) was -88%, the Activity (SF-268) was 79% and the Activity (MDA-MB-468) was 97%. The Activity (HCT-116) was -100%, the Activity (NCI-H23 [7]) was 92% and the Activity (HL-60(TB)) was -89%. The Activity (SW-620) was -100%.

In the case of `CN1CCN(CCCn2c3c(sc4ncccc43)c(=O)n3nnc(-c4ccccc4)c23)CC1`, the Activity (RXF 393) is reported as -83%, the Activity (TK-10) is reported as 119% and the Activity (NCI-H226) is reported as 85%. The Activity (DU-145) was 95%, the Activity (U-251) was 98% and the Activity (K562 [1]) was 95%. For the same compound, the GI50 (UACC-257; read-out: GI50) was 1.81 µM, the CC50 (UACC-257; [8]) was 6.3 µM and the TGI (UACC-257; read-out: TGI) was 3.37 µM. The GI50 (UACC-257; read-out: pGI50 (converted)) was 1.82 µM, the CC50 (UACC-257; [9]) was 6.31 µM and the TGI (UACC-257; read-out: pTGI (converted)) was 3.39 µM. It also gave an Activity (MCF7 [2]) of 87%, an Activity (SF-539) of 99% and an Activity (NCI-H522) of 96%. The Activity (HOP-92) was 92%, the Activity (M14) was 97% and the Activity (K562 [3]) was 86%. The Activity (BT-549) was 97%, the Activity (CCRF-CEM) was 77% and the Activity (MCF7 [4]) was 91%. For the same compound, the Activity (UO-31) was 53%, the Activity (SK-OV-3) was 106% and the Activity (MDA-MB-435) was 99%. For the same compound, the Activity [5] was 98%, the Activity (786-0) was 100% and the Activity (LOX IMVI) was 88%. The GI50 (A549; read-out: GI50) was 1.79 µM, the TGI (A549; read-out: TGI) was 3.4 µM and the GI50 (A549; read-out: pGI50 (converted)) was 1.78 µM. It also gave a TGI (A549; read-out: pTGI (converted)) of 3.39 µM, a GI50 (KM12; read-out: GI50) of 1.73 µM and a CC50 (KM12; [8]) of 6.71 µM. The TGI (KM12; read-out: TGI) was 3.41 µM, the GI50 (KM12; read-out: pGI50 (converted)) was 1.74 µM and the CC50 (KM12; [9]) was 6.76 µM. For the same compound, the TGI (KM12; read-out: pTGI (converted)) was 3.39 µM, the Activity (Hs-578T) was 93% and the GI50 (A498; read-out: GI50) was 11.2 µM. For the same compound, the CC50 (A498; [8]) was 52.3 µM, the TGI (A498; read-out: TGI) was 24.2 µM and the GI50 (A498; read-out: pGI50 (converted)) was 11.2 µM. The CC50 (A498; [9]) was 52.5 µM, the TGI (A498; read-out: pTGI (converted)) was 24 µM and the Activity (SNB-75) was 66%. It also gave a GI50 (OVCAR-8; read-out: GI50) of 1.93 µM, a CC50 (OVCAR-8; [8]) of over 100 µM and a TGI (OVCAR-8; read-out: TGI) of 4.49 µM. The GI50 (OVCAR-8; read-out: pGI50 (converted)) was 1.95 µM, the CC50 (OVCAR-8; read-out: pLC50 (converted)) was over 100 µM and the TGI (OVCAR-8; read-out: pTGI (converted)) was 4.47 µM. For the same compound, the Activity (NCI-H23 [6]) was -59%, the Activity (Malme-3M) was -82% and the Activity (SK-MEL-28) was -97%. The Activity (T47D) was -76%, the Activity (SF-268) was 83% and the Activity (MDA-MB-468) was 95%. For the same compound, the Activity (HCT-116) was -92.56%, the Activity (NCI-H23 [7]) was 100% and the Activity (HL-60(TB)) was -62%. The Activity (SW-620) was -75%.
